Where a name gives a salt, the structure may show the parent alone. Read-outs that look alike come from different tables or passages of the source.
Assays:
[1] = test system: hCoV-19/Norway/Trondheim-E9/2020; assay: Drug test: viability of SARS-CoV-2-infected Vero-E6 cells (CellTiter-Glo); type: cell-based; design: AUC: unit not given beside the values
[2] = Cytotoxicity in mock-infected Vero-E6 cells (CellTiter-Glo); conditions: African green monkey
[3] = Drug combination test, mock-infected Vero-E6 cells (CTG); type: cell-based; conditions: African green monkey, mock-infected Vero-E6 cells (control), read-out: Relative viability (%); for viability at 72 h, 0.008 uM: single drug 0.008 uM (other drug 0); for viability at 72 h, 0.04 uM: single drug 0.04 uM (other drug 0); for viability at 72 h, 0.2 uM: single drug 0.2 uM (other drug 0); for viability at 72 h, 1 uM: single drug 1.0 uM (other drug 0); for viability at 72 h, 5 uM: single drug 5.0 uM (other drug 0)
[4] = test system: viral genomic and sub-genomic RNAs; assay: Gene expression analysis (RNA sequencing) of drug-treated infected Vero-E6 cells; type: cell-based, SARS-CoV-2; conditions: moi 0.1, 24 h, 3 M nelfinavir, 5 M amodiaquine or both
[5] = Severe acute respiratory syndrome coronavirus 2, Vero C1008, 72 h
[6] = Severe acute respiratory syndrome coronavirus 2, Vero C1008, infected Vero-E6 cells, moi 0.1, 72 h, Mean ± SD, n = 3
[7] = area under the dose-response curve of viability of virus-infected Vero-E6 cells, moi 0.1, 72 h, 7 concentrations, decimal comma

Work on `CC[C@@H](C(=O)[C@@H](C)[C@@H](O)[C@H](C)[C@@H]1O[C@@H]([C@@H](CC)C(=O)O)CC[C@@H]1C)[C@H]1O[C@]2(C=C[C@@H](O)[C@]3(CC[C@@](C)([C@H]4CC[C@](O)(CC)[C@H](C)O4)O3)O2)[C@H](C)C[C@@H]1C` [Salinomycin] yielded an EC50 [1, 5] of 200 ± 100 nM and a CC50 at 72 h [2] of 13900 ± 300 nM.
Molecule `CC[C@H]1CN2CCc3cc(OC)c(OC)cc3[C@@H]2C[C@@H]1C[C@H]1NCCc2cc(OC)c(OC)cc21` [Emetine] has an EC50 [1, 5] of less than 10 nM and a CC50 at 72 h [2] of 700 ± 400 nM.
With `CCN(CC)Cc1cc(Nc2ccnc3cc(Cl)ccc23)ccc1O` [Amodiaquine] the EC50 [1, 6] was 4200 ± 200 nM, the viability at 72 h, 0.008 uM [3] was 89.1% and the viability at 72 h, 0.04 uM [3] was 91.8%. For the same molecule, the viability at 72 h, 0.2 uM [3] was 76.4%, the viability at 72 h, 1 uM [3] was 76.6% and the viability at 72 h, 5 uM [3] was 71.5%. For the same molecule, the “transcription of viral genomic and sub-genomic RNAs” value [4] was “lowered the transcription of viral genomic and sub-genomic RNAs” and the CC50 at 72 h ([2]; mock-infected Vero-E6 cells) was greater than 30000 nM.
For `CN[C@H](CC(C)C)C(=O)N[C@H]1C(=O)N[C@@H](CC(N)=O)C(=O)N[C@H]2C(=O)N[C@H]3C(=O)N[C@H](C(=O)N[C@H](C(=O)O)c4cc(O)cc(O)c4-c4cc3ccc4O)[C@H](O[C@H]3C[C@](C)(N)[C@@H](O)[C@H](C)O3)c3ccc(c(Cl)c3)Oc3cc2cc(c3O[C@@H]2O[C@H](CO)[C@@H](O)[C@H](O)[C@H]2O[C@H]2C[C@](C)(NCc3ccc(-c4ccc(Cl)cc4)cc3)[C@@H](O)[C@H](C)O2)Oc2ccc(cc2Cl)[C@H]1O` [Oritavancin], the AUC ([1]; 72 h) was 163,24.
In the case of `Cc1c(O)cccc1C(=O)N[C@@H](CSc1ccccc1)[C@H](O)CN1C[C@H]2CCCC[C@H]2C[C@H]1C(=O)NC(C)(C)C` [Nelfinavir], the EC50 [1, 6] is reported as 2100 ± 600 nM, the viability at 72 h, 0.008 uM [3] is reported as 100% and the viability at 72 h, 0.04 uM [3] is reported as 100%. For the same molecule, the viability at 72 h, 0.2 uM [3] was 96.5%, the viability at 72 h, 1 uM [3] was 90.2% and the viability at 72 h, 5 uM [3] was 80.7%. It also gave a CC50 at 72 h ([2]; mock-infected Vero-E6 cells) of 9700 ± 400 nM.
With `NC(=O)c1ncn([C@@H]2O[C@H](CO)[C@@H](O)[C@H]2O)n1` [Ribavirin] the AUC [1, 7] was 134,26.
In the case of `O=C(O)[C@H]1C2CCC(CC2)[C@@H]1Nc1nc(-c2c[nH]c3ncc(F)cc23)ncc1F` [Pimodivir], the AUC [1, 7] is reported as 126,91.
For `COc1ccc2c(c1)c(CC(=O)O)c(C)n2C(=O)c1ccc(Cl)cc1` [Indomethacin], the AUC [1, 7] was 104,51.
Molecule `COC(=O)C1=C(C)NC(C)=C(C(=O)OCCN2CCN(C(c3ccccc3)c3ccccc3)CC2)C1c1cccc([N+](=O)[O-])c1` (stereo not drawn) [Manidipine] has an AUC [1, 7] of 133.
In the case of `COc1ccc([C@@H]2Sc3ccccc3N(CCN(C)C)C(=O)[C@@H]2OC(C)=O)cc1` [Diltiazem], the AUC [1, 7] is reported as 99,61.
In the case of `CN[C@H]1C(=O)N[C@@H]2Cc3ccc(cc3)Oc3cc4cc(c3O[C@@H]3O[C@H](C(=O)O)[C@@H](O)[C@H](O)[C@H]3NC(=O)CCCCCCCCC(C)C)Oc3ccc(cc3Cl)[C@@H](O)[C@@H]3NC(=O)[C@H](NC(=O)[C@@H]4NC(=O)[C@@H](NC2=O)c2cc(cc(O)c2Cl)Oc2cc1ccc2O)c1ccc(O)c(c1)-c1c(O[C@H]2O[C@H](CO)[C@@H](O)[C@H](O)[C@@H]2O)cc(O)cc1[C@@H](C(=O)NCCCN(C)C)NC3=O` [Dalbavancin], the AUC ([1]; 72 h) is reported as 136,29.
In the case of `COc1ccc(CC(C)NCC(O)c2ccc(O)c(NC=O)c2)cc1` (stereo not drawn) [Formoterol], the AUC ([1]; 72 h) is reported as 203,77.
With `CC[C@H]1OC(=O)[C@H](C)[C@@H](O[C@H]2C[C@@](C)(OC)[C@@H](O)[C@H](C)O2)[C@H](C)[C@@H](O[C@@H]2O[C@H](C)C[C@H](N(C)C)[C@H]2O)[C@](C)(O)C[C@@H](C)CN(C)[C@H](C)[C@@H](O)[C@]1(C)O` [Azithromycin] the AUC [1, 7] was 119,42.
With `CCN(CC)CCCC(C)Nc1c2ccc(Cl)cc2nc2ccc(OC)cc12` (stereo not drawn) [Quinacrine dihydrochloride] the AUC [1, 7] was 105,63.
With `COc1ccc2nc([S@@+]([O-])Cc3ncc(C)c(OC)c3C)[nH]c2c1` [Esomeprazole] the AUC [1, 7] was 177,52.
For `CC(=O)O[C@H]1C[C@H](O[C@H]2[C@@H](O)C[C@H](O[C@H]3[C@@H](O)C[C@H](O[C@H]4CC[C@@]5(C)[C@H](CC[C@@H]6[C@@H]5C[C@@H](O)[C@]5(C)[C@@H](C7=CC(=O)OC7)CC[C@]65O)C4)O[C@@H]3C)O[C@@H]2C)O[C@H](C)[C@H]1O[C@@H]1O[C@H](CO)[C@@H](O)[C@H](O)[C@H]1O` [Lanatoside C], the AUC ([1]; 72 h) was 54,25.
For `COC1=CC(c2cc3ccccc3[nH]2)=N/C1=C\c1[nH]c(C)cc1C` [Obatoclax (Mesylate), Obatoclax], the EC50 [1, 6] was 300 ± 100 nM and the CC50 at 72 h ([2]; mock-infected Vero-E6 cells) was 2200 ± 1000 nM.
With `O=C(/C=C\n1cnc(-c2cc(C(F)(F)F)cc(C(F)(F)F)c2)n1)NNc1ccccn1` [Verdinexor] the AUC [1, 7] was 83,93.
For `CC(=O)Oc1ccccc1C(=O)Nc1ncc([N+](=O)[O-])s1` [Nitazoxanide], the AUC [1, 7] was 120,33.
For Teicoplanin, the AUC ([1]; 72 h) was 145,39.
With `CN(C)c1ccc(O)c2c1C[C@H]1C[C@H]3[C@H](N(C)C)C(O)=C(C(N)=O)C(=O)[C@@]3(O)C(O)=C1C2=O` [Minocycline] the AUC [1, 7] was 119,14.
For `O=c1c(-c2ccc(O)cc2)coc2cc(O[C@@H]3O[C@H](CO)[C@@H](O)[C@H](O)[C@H]3O)cc(O)c12` [Genistin], the AUC [1, 7] was 54,1.
In the case of `CCN(CC)CCOc1ccc2c(c1)C(=O)c1cc(OCCN(CC)CC)ccc1-2` [Tilorone (dihydrochloride), Tilorone], the AUC [1, 7] is reported as 83,72.
In the case of `CN1CCC[C@H]1c1cccnc1` [nicotine], the AUC [1] is reported as 239 and the “rescue of cells from virus-mediated death” value [1] is reported as “rescued cells from virus-mediated death but altered the cell morphology”.
In the case of `Nc1ccn(C[C@@H](CO)OCP(=O)(O)O)c(=O)n1` [Cidofovir], the AUC [1, 7] is reported as 144,69.
In the case of `CC(=O)OCC(CCn1cnc2cnc(N)nc21)COC(C)=O` [Famciclovir], the AUC [1, 7] is reported as 149,52.
In the case of `O=C(Nc1ccc([N+](=O)[O-])cc1Cl)c1cc(Cl)ccc1O` [Niclosamide], the AUC [1, 7] is reported as 149,52.
For `CCn1cc(C(=O)O)c(=O)c2cc(F)c(N3CCNCC3)nc21` [Enoxacin], the AUC [1, 7] was 118,23.
With `CCN(CC)C[C@@H](O)CNc1ccc(NC[C@H]2CO2)c2c1C(=O)c1ccccc1C2=O` [BDA-366] the AUC ([1]; 72 h) was 174,3.
For `Cn1c(=O)c2c(ncn2CC(O)CO)n(C)c1=O` (stereo not drawn) [7-(2,3-Dihydroxypropyl)theophylline], the AUC ([1]; 72 h) was 195,44.
For `CCCCCCCCCCCCCCCCOCCCOP(=O)(O)CO[C@H](CO)Cn1ccc(N)nc1=O` [Brincidofovir (CMX001), Brincidofovir], the AUC [1, 7] was 126,49.
In the case of Chicoric acid, the AUC ([1]; 72 h) is reported as 93,1.
In the case of `CN(C)C(=N)N=C(N)N` [Metformin (1,1-Dimethylbiguanide), 1,1-Dimethylbiguanide], the AUC [1, 7] is reported as 116,76.
For `CC(=O)Oc1ccccc1C(=O)O` [Acetylsalicylic acid], the AUC [1, 7] was 131,04.
With `CCCCNc1cc(C(=O)O)cc(S(N)(=O)=O)c1Oc1ccccc1` [Bumetanide] the AUC [1, 7] was 87,85.
In the case of `Cc1ccc(C(=O)Nc2ccc(S(=O)(=O)O)c3cc(S(=O)(=O)O)cc(S(=O)(=O)O)c23)cc1NC(=O)c1cccc(NC(=O)Nc2cccc(C(=O)Nc3cc(C(=O)Nc4ccc(S(=O)(=O)O)c5cc(S(=O)(=O)O)cc(S(=O)(=O)O)c45)ccc3C)c2)c1` [Suramin], the AUC ([1]; 72 h) is reported as 94,57.
For Abamectin, the AUC ([1]; 72 h) was 151,97.
For `NC(=O)c1nc(F)c[nH]c1=O` [Favipiravir (T-705), Favipiravir], the AUC [1, 7] was 136,64.
In the case of `O=C1c2c(O)ccc(O)c2C(=O)c2c(NCCNCCO)ccc(NCCNCCO)c21` [Mitoxantrone], the AUC [1, 7] is reported as 125,09.
With `CN1[C@@H]2CC[C@H]1C[C@@H](OC(c1ccccc1)c1ccccc1)C2` [Benzatropine] the AUC [1, 7] was 208,11.
For `CC(C)(C)c1cnc(CSc2cnc(NC(=O)C3CCNCC3)s2)o1` [SNS-032], the AUC [1, 7] was 96,25.
In the case of `CS(=O)(=O)O.Cc1ccc2c(c1)c1c3n2CCNC3CCC1` (stereo not drawn) [Pirlindole mesylate], the AUC ([1]; 72 h) is reported as 120,4.
With `O=C(c1ccc(OCCN2CCCCC2)cc1)c1c(-c2ccc(O)cc2)sc2cc(O)ccc12` [Raloxifene] the AUC [1, 7] was 199,57.
With `N=C(N)NC(=O)c1nc(Cl)c(N)nc1N` [Amiloride (EIPA)] the AUC [1, 7] was 182,56.
For `N=C(N)c1ccc2cc(OC(=O)c3ccc(N=C(N)N)cc3)ccc2c1` [Nafamostat], the AUC ([1]; 72 h) was 166,53.
For `CC[C@@]1(O)C(=O)OCc2c1cc1n(c2=O)Cc2cc3ccccc3nc2-1` [Camptothecin], the AUC ([1]; 72 h) was 57,75.
In the case of `CN(C)CCOc1ccc(/C(=C(/CCCl)c2ccccc2)c2ccccc2)cc1` [Toremifene], the AUC [1, 7] is reported as 27,02.
`COC(=O)C[C@](O)(CCCC(C)(C)O)C(=O)O[C@@H]1C(OC)=C[C@]23CCCN2CCc2cc4c(cc2[C@H]13)OCO4` [Homoharringtonine] showed an EC50 [1, 6] of 30 ± 20 nM and a CC50 at 72 h ([2]; mock-infected Vero-E6 cells) of 360 ± 600 nM.
In the case of `C/C(O)=C(\C#N)C(=O)Nc1ccc(C(F)(F)F)cc1` [Teriflunomide], the AUC [1, 7] is reported as 72,87.
For `C#Cc1cccc(Nc2ncnc3cc(OCCOC)c(OCCOC)cc23)c1` [Erlotinib], the AUC [1, 7] was 103,46.
With `CC(C)C(=O)OCC(=O)[C@@]12O[C@H](C3CCCCC3)O[C@@H]1C[C@H]1[C@@H]3CCC4=CC(=O)C=C[C@]4(C)[C@H]3[C@@H](O)C[C@@]12C` [Ciclesonide] the AUC [1, 7] was 157,15.
In the case of `CC1(C)[C@@H](O[C@H]2O[C@H](C(=O)O)[C@@H](O)[C@H](O)[C@H]2O[C@@H]2O[C@H](C(=O)O)[C@@H](O)[C@H](O)[C@H]2O)CC[C@]2(C)[C@H]3C(=O)C=C4[C@@H]5C[C@@](C)(C(=O)O)CC[C@]5(C)CC[C@@]4(C)[C@]3(C)CC[C@@H]12` [Glycyrrhizic acid (Glycyrrhizin), Glycyrrhizic acid], the AUC ([1]; 72 h) is reported as 235,76.
With `CC1=C(/C=C/C(C)=C/C=C/C(C)=C/C(=O)Nc2ccc(O)cc2)C(C)(C)CCC1` [Fenretinide (4-HPR), Fenretinide] the AUC [1, 7] was 137,9.
For `Oc1c(Cl)cc(Cl)c(Cl)c1Cc1c(O)c(Cl)cc(Cl)c1Cl` [Hexachlorophene], the AUC ([1]; 72 h) was 122,15.
